≈ marks a conversion by molar mass, not a printed value. Where a name gives a salt, the structure may show the parent alone. Read-outs that look alike come from different tables or passages of the source.
How the values were obtained:
[1] = Aqueous solubility assay in Normal Ringer Solution; conditions: Normal Ringer Solution; for solubility at 40 min: saline or isotonic, kinetic from dmso stock; for Solubility Ringer (nM): room temperature
Experimental: Following vortex and incubation for a sufficient time (e.g. 40 minutes at room temperature), solutions were filtered, quenched with acetonitrile, and analyzed by Liquid Chromotography. Solubility Limits were determined by comparison to a standard curve.

hTRPV3 = hTRPV3 (Homo sapiens (Human), UniProt Q8NET8); assay: Whole-cell patch clamp, hTRPV3 Phase 1 / Phase 2 currents; assay type: cell-based
Summary of the method: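 Whole-cell recordings on induced TRPV3 cells replated on coverslips, held at −40 mV with 400 ms ramps from −120 to +100 mV every 5 s; currents read at −80 and +80 mV. Ringer's external solution; current activated by heating to ≥28 °C or 20 μM 2-APB.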

[2] = Phase 1 current, inward, whole-cell patch clamp, read-out: hTRPV3 Patch P1 Inwd
[3] = Phase 1 current, read-out: hTRPV3 (nM) (Phase 1)
[4] = Phase 2 current, inward, whole-cell patch clamp, read-out: hTRPV3 Patch P2 Inwd
[5] = Phase 2 current, read-out: hTRPV3 (nM) (Phase 2)
[6] = Phase 1 current, human TRPV3, read-out: hTRPV3 (nM) Phase 1
[7] = read-out: hTRPV3 (nM) (Phase 2)

Sequence of hTRPV3 (Q8NET8 whole entry): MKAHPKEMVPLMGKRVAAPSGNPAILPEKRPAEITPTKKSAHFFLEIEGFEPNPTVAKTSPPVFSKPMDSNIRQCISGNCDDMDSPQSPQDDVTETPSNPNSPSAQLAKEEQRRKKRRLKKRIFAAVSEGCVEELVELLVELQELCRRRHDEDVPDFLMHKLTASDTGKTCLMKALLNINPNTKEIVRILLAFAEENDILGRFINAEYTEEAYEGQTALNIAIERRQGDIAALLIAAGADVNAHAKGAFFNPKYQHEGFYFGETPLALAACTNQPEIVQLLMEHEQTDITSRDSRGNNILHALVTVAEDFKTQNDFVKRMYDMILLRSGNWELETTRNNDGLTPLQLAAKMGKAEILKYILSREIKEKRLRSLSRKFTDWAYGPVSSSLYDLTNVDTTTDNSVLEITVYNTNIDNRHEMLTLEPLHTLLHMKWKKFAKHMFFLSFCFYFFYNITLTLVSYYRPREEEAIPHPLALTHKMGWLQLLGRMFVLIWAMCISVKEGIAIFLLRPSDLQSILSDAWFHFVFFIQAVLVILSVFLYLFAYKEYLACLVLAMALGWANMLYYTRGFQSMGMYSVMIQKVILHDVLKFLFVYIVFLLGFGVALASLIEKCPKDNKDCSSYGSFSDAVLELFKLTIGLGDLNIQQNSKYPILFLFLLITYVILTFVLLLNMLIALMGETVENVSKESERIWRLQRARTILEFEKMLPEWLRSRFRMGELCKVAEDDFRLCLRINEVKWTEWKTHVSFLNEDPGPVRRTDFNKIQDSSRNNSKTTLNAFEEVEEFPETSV

| SMILES | solubility at 40 min [1] | IC50 (hTRPV3; [2]) | IC50 (hTRPV3; [3]) | IC50 (hTRPV3; [4]) | IC50 (hTRPV3; [5]) | further results |
| --- | --- | --- | --- | --- | --- | --- |
| NC(=O)c1cc(-c2ccccc2)ccc1N1CC[C@@H](Oc2ncccc2Cl)C1 [Compound 1-75, (R)-4-(3-(3-chloropyridin-2-yloxy)pyrrolidin-1-yl)biphenyl-3-carboxamide] | 0.32 µM (≈ 0.126 µg/mL) | > 1000 nM | ~2300 nM | 100 to 1000 nM | 342 nM | – |
| CC(C)(C)OC(=O)N1CCC(c2ccc(N3CC[C@H](Oc4ccc(C(F)(F)F)cn4)C3)c(CO)c2)CC1 [Compound 1-273, (S)-tert-butyl 4-(3-(hydroxymethyl)-4-(3-(5-(trifluoromethyl)pyridin-2-yloxy)pyrrolidin-1-yl)phenyl)piperidine-1-carboxylate] | – | > 1000 nM | > 3200 nM | – | – | Solubility Ringer (nM) [1]: BLQ |
| NC(=O)c1cc(-c2cccnc2)ccc1N1CC[C@H](Oc2ccc(C(F)(F)F)cn2)C1 [Compound 1-80, (S)-5-(pyridin-3-yl)-2-(3-(5-(trifluoromethyl)pyridin-2-yloxy)pyrrolidin-1-yl)benzamide] | > 3.3 µM | > 1000 nM | > 3200 nM | > 1000 nM | ~5900 nM | – |
| CC(C)Oc1ccccc1N1CC[C@H](Oc2ccc3cc(Cl)ccc3n2)C1 [Compound 1-76, (S)-6-chloro-2-(1-(2-isopropoxyphenyl)pyrrolidin-3-yloxy)quinoline] | – | > 1000 nM | > 3200 nM | > 1000 nM | ~4600 nM | Solubility Ringer (nM) [1]: BLQ |
| Cc1ccc(O[C@H]2CCN(c3ccc(Oc4ccccc4C)nc3CO)C2)nc1 [Compound 1-203, (S)-(3-(3-(5-methylpyridin-2-yloxy)pyrrolidin-1-yl)-6-(o-tolyloxy)pyridin-2-yl)methanol] | ~1.4 µM (≈ 0.548 µg/mL) | > 1000 nM | ~5050 nM | > 1000 nM | 3270 nM | – |
| OCc1cc(-c2ccccc2)ccc1N1CC[C@H](Oc2nc(C(F)(F)F)cs2)C1 [Compound 1-395, (S)-(4-(3-(4-(trifluoromethyl)thiazol-2-yloxy)pyrrolidin-1-yl)biphenyl-3-yl)methanol] | – | > 1000 nM | > 3200 nM | > 1000 nM | > 3200 nM | Solubility Ringer (nM) [1]: BLQ |
| COc1ccccc1Oc1ccc(N2CC[C@H](Oc3ncccc3C)C2)c(CO)c1 [Compound 1-340, (S)-(5-(2-methoxyphenoxy)-2-(3-(3-methylpyridin-2-yloxy)pyrrolidin-1-yl)phenyl)methanol] | ~2.4 µM (≈ 0.976 µg/mL) | 10 to 100 nM | 70.1 nM | 10 to 100 nM | 74.4 nM | – |
| NS(=O)(=O)c1cc(-c2ccccc2)ccc1N1CC[C@@H](Oc2ccc(C(F)(F)F)cn2)C1 [Compound 1-102] | ~0.23 µM (≈ 0.107 µg/mL) | > 1000 nM | – | > 1000 nM | – | – |
| OCc1cc(-c2ccccc2)ncc1N1CC[C@H](Oc2ccc(C(F)(F)F)cn2)C1 [Compound 1-158] | ~2 µM (≈ 0.831 µg/mL) | 100 to 1000 nM | 773 nM | 100 to 1000 nM | 747 nM | – |
| OC[C@@H]1C[C@@H](Oc2ccc(C(F)(F)F)cn2)CN1c1ccc(-c2ccccc2)cc1 [Compound 1-175] | ~0.68 µM (≈ 0.282 µg/mL) | > 1000 nM | > 3200 nM | > 1000 nM | > 3200 nM | – |
| NC(=O)c1cc(-c2ccncc2)ccc1N1CC[C@H](Oc2ccc(C(F)(F)F)cn2)C1 [Compound 1-83, (S)-5-(pyridin-4-yl)-2-(3-(5-(trifluoromethyl)pyridin-2-yloxy)pyrrolidin-1-yl)benzamide] | > 3.9 µM | > 1000 nM | 2840 nM | > 1000 nM | 3350 nM | – |
| CC(O)c1ccccc1-c1ccc(N2CC[C@H](Oc3ccc(C(F)(F)F)cn3)C2)c(CO)c1 (stereo partly drawn) [Compound 1-171, 1-(3′-(hydroxymethyl)-4′-((S)-3-(5-(trifluoromethyl)pyridin-2-yloxy)pyrrolidin-1-yl)biphenyl-2-yl)ethanol] | > 5.35 µM | 100 to 1000 nM | 740 nM | 100 to 1000 nM | 636 nM | – |
| CN(C)C(=O)c1ccccc1-c1ccc(N2CC[C@H](Oc3ccc(C(F)(F)F)cn3)C2)c(CO)c1 [Compound 1-167, (S)-3′-(hydroxymethyl)-N,N-dimethyl-4′-(3-(5-(trifluoromethyl)pyridin-2-yloxy)pyrrolidin-1-yl)biphenyl-2-carboxamide] | > 12.6 µM | > 1000 nM | ~1290 nM | > 1000 nM | > 3200 nM | – |
| Cc1ccccc1Oc1ccc(C2CCN(Cc3ncccc3Cl)C2)c(CO)c1 (stereo not drawn) [Compound 2-86] | ~2.2 µM (≈ 0.9 µg/mL) | 100 to 1000 nM | – | – | – | IC50 (hTRPV3; [6]): 226 nM |
| COc1ccccc1-c1ccc(N2CC[C@H](Oc3ccc(F)cn3)C2)c(CO)n1 [Compound 1-209, (S)-(3-(3-(5-fluoropyridin-2-yloxy)pyrrolidin-1-yl)-6-(2-methoxyphenyl)pyridin-2-yl)methanol] | ~2.3 µM (≈ 0.909 µg/mL) | > 1000 nM | 3470 nM | – | – | – |
| OCc1ccccc1-c1ccc(N2CC[C@H](Oc3ccc(C(F)(F)F)cn3)C2)c(CO)c1 [Compound 1-174, (S)-(4′-(3-(5-(trifluoromethyl)pyridin-2-yloxy)pyrrolidin-1-yl)biphenyl-2,3′-diyl)dimethanol] | > 0.67 µM | 100 to 1000 nM | > 320 nM | > 1000 nM | > 3200 nM | – |
| OCc1cc(Oc2ccccc2)ccc1N1CC[C@H](Nc2ncccc2Cl)C1 [Compound 1-381, (S)-(2-(3-(3-chloropyridin-2-ylamino)pyrrolidin-1-yl)-5-phenoxyphenyl)methanol] | > 1.6 µM | 10 to 100 nM | 23.3 nM | – | – | – |
| Cl.NC(=O)c1cc(-c2cccnc2)ccc1N1CC[C@@H](Oc2ncccc2Cl)C1 [Compound 1-74, (R)-2-(3-(3-chloropyridin-2-yloxy)pyrrolidin-1-yl)-5-(pyridin-3-yl)benzamide hydrochloride] | > 13.5 µM | – | – | – | – | IC50 (hTRPV3; hTRPV3 Patch P2 Inwd (nM)): > 1000 nM; IC50 (hTRPV3; [7]): ~5040 nM |
| N#Cc1ccc(O[C@H]2CCN(c3ccc(-c4ccccc4)cc3CO)C2)nc1 [Compound 1-143, (S)-6-(1-(3-(hydroxymethyl)biphenyl-4-yl)pyrrolidin-3-yloxy)nicotinonitrile] | 1.4 µM (≈ 0.52 µg/mL) | 100 to 1000 nM | 337 nM | – | – | – |
| OCc1cc(-c2ccccc2)ccc1N1CC[C@H](Oc2ccccn2)C1 [Compound 1-274] | ~5.5 µM (≈ 1.91 µg/mL) | 100 to 1000 nM | 241 nM | – | – | – |
| N#Cc1ccccc1-c1ccc(N2CC[C@H](Oc3ccc(C(F)(F)F)cn3)C2)c(CO)n1 [Compound 1-197, (S)-2-(6-(hydroxymethyl)-5-(3-(5-(trifluoromethyl)pyridin-2-yloxy)pyrrolidin-1-yl)pyridin-2-yl)benzonitrile] | ~0.4 µM (≈ 0.176 µg/mL) | 10 to 100 nM | ~38.5 nM | – | – | – |
| N#Cc1cc(-c2ccccc2)ncc1N1CC[C@@H](Oc2ccc(C(F)(F)F)cn2)C1 [Compound 1-94] | – | – | – | – | ~117 nM | Solubility Ringer (nM) [1]: BLQ; hTRPV3 (nM) (Phase 2) (hTRPV3; Phase 2 current): Incomplete Block; IC50 (hTRPV3; Phase 2 current, inward, numeric value printed in cell (flagged), read-out: hTRPV3 Patch P2 Inwd): ~117 nM |
| NC(=O)c1cc(-c2ccccn2)ccc1N1CC[C@H](Oc2ccc(C(F)(F)F)cn2)C1 [Compound 1-81, (S)-5-(pyridin-2-yl)-2-(3-(5-(trifluoromethyl)pyridin-2-yloxy)pyrrolidin-1-yl)benzamide] | ~1.4 µM (≈ 0.6 µg/mL) | > 1000 nM | > 3200 nM | > 1000 nM | 2190 nM | – |
| Cc1ccc(Oc2ccc(N3CC[C@H](Oc4ncccc4Cl)C3)c(CO)c2)cc1 [Compound 1-250, (S)-(2-(3-(3-chloropyridin-2-yloxy)pyrrolidin-1-yl)-5-(p-tolyloxy)phenyl)methanol] | ~0.1 µM (≈ 0.0411 µg/mL) | < 10 nM | 8.42 nM | – | – | – |
| OCc1cc(Oc2ccccc2Cl)ccc1N1CC[C@H](Nc2ncccc2Cl)C1 [Compound 1-382, (S)-(5-(2-chlorophenoxy)-2-(3-(3-chloropyridin-2-ylamino)pyrrolidin-1-yl)phenyl)methanol] | 0.5 µM (≈ 0.215 µg/mL) | 10 to 100 nM | 30.9 nM | – | – | – |
| NC(=O)c1ccccc1-c1ccc(N2CC[C@H](Oc3ccc(C(F)(F)F)cn3)C2)c(CO)c1 [Compound 1-159, (S)-3′-(hydroxymethyl)-4′-(3-(5-(trifluoromethyl)pyridin-2-yloxy)pyrrolidin-1-yl)biphenyl-2-carboxamide] | > 16.6 µM | > 1000 nM | > 3200 nM | > 1000 nM | > 3200 nM | – |
| NCc1cc(-c2ccccc2)ccc1N1CC[C@@H](Oc2ccc(C(F)(F)F)cn2)C1 [Compound 1-109, (R)-(4-(3-(5-(trifluoromethyl)pyridin-2-yloxy)pyrrolidin-1-yl)biphenyl-3-yl)methanamine hydrochloride] | > 2.95 µM | – | – | – | – | IC50 (hTRPV3; hTRPV3 Patch P1 Inwd (nM)): > 1000 nM; IC50 (hTRPV3; hTRPV3 Patch P2 Inwd (nM)): > 1000 nM; IC50 (hTRPV3; read-out: hTRPV3 (nM) (Phase 1)): 1870 nM; IC50 (hTRPV3; [7]): 1930 nM |
| OCc1cc([C@H](O)c2ccccc2Cl)ccc1N1CC[C@H](Oc2ncccc2F)C1 [Compound 1-322, (2-chlorophenyl)(4-((S)-3-(3-fluoropyridin-2-yloxy)pyrrolidin-1-yl)-3-(hydroxymethyl)phenyl)methanol] | > 9.3 µM | 100 to 1000 nM | 794 nM | – | – | – |
| CCOc1ccccc1-c1ccc(C2CCN(C(=O)c3ccc(F)cn3)C2)c(CO)c1 (stereo not drawn) [Compound 2-59, (3-(2′-ethoxy-3-(hydroxymethyl)biphenyl-4-yl)pyrrolidin-1-yl)(5-fluoropyridin-2-yl)methanone] | – | 10 to 100 nM | – | – | – | IC50 (hTRPV3; [6]): 62.1 nM |

— patent US12435061B2 (priority 2020, dated 2025)
